{
  "source": "patent US20040044043A1",
  "about": "“Thiazolidinedione derivative and its use as antidiabetic” (priority 2000, published 2004)",
  "key": {"[1]": {"assay": "Solid state stability of the drug substance (storage, HPLC assay)", "format": "physicochemical", "details": "1 month", "description": "The solid state stability of the drug substance was determined by storing approximately 1.0 g of the material in a glass bottle at a) 40° C./75% Relative Humidity (RH), open exposure, for 1 month and b) at 50° C., closed, for 1 month. The material was assayed by HPLC for final content and degradation products in both cases."}, "[2]": {"assay": "Solubility in water (visual, confirmed by HPLC assay of a saturated solution)", "format": "physicochemical", "details": "thermodynamic from solid", "experimental": "The visual solubility was confirmed by an HPLC assay of a saturated solution. Solubility: >100 mg/ml."}},
  "data": [
    {"smiles": "CCS(=O)(=O)O.CN(CCOc1ccc(CC2SC(=O)NC2=O)cc1)c1ccccn1", "note": "(centres unmarked) [Ethanesulfonate, 5-[4-[2-(N-methyl-N-(2-pyridyl)amino)ethoxy]benzyl]thiazolidine-2,4-dione ethanesulfonate]", "values": [
      {"measurement": "Degradation (HPLC degradation products)", "setting": "[1]; 40° C./75% RH, open exposure", "value": "No significant degradation observed"},
      {"measurement": "HPLC assay for final content", "setting": "[1]; 40° C./75% RH, open exposure", "value": 99, "unit": "% initial"},
      {"measurement": "Degradation (HPLC degradation products)", "setting": "[1]; 50° C., closed", "value": "No significant degradation observed"},
      {"measurement": "HPLC assay for final content", "setting": "[1]; 50° C., closed", "value": 100, "unit": "% initial"},
      {"measurement": "solubility", "setting": "[2]", "value": "> 100", "unit": "mg/mL"}
    ]}
  ]
}
